Measured values published in US20260232666A1, “COMPOSITIONS AND METHODS FOR INHIBITION OF RAS” (TheRas, Inc., priority 2023, published 2026).

Tests used:
[1] = target: T1, Avi-KRAS G12C (1-169) GppNHp/RAF1 RBD-3×FLAG (52-151) (Homo sapiens, UniProt P01116, G12C); test: Raf1 RBD-KRAS G12C-GppNHp disruption assay (protein:protein interaction HTRF); type: biochemical
T1 construct: Avi-KRAS G12C (1-169) GppNHp; Avi (N)
Method in brief: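 HTRF measuring RAF1 RBD binding to GppNHp-loaded KRAS G12C (50 nM) in Tris pH 7.5, 100 mM NaCl, 5 mM MgCl2, 10% DMSO. Compound, KRAS, RBD and detection reagents each added sequentially with 1 h room-temperature incubations; 10-point titration; excitation 320 nm, emission 615 nm; activity as % of DMSO; IC50 derived.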

[2] = target: T2, GTP-loaded KRAS4b (amino acids 1-169) G12C/C118S protein (Homo sapiens, UniProt P01116, C118S/G12C); test: Covalent cysteine 12 modification by MALDI-TOF MS, GTP-loaded KRAS G12C; type: binding; conditions: 15 minutes reaction time point
T2 construct: KRAS4b (amino acids 1-169) G12C/C118S protein; made in house
Method in brief: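 Percent modification comes from MALDI-TOF peak heights: the compound-adduct peak divided by the sum of the remaining-protein and adduct peaks. Reactions contained 1 μM protein and compound at a 1:2.5 ratio, in pH 7.3 HEPES buffer with NaCl and MgCl2, held 15 min at room temperature.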

| Compound | IC50 [1] [nM] | GTP-KRAS G12C percent of modification [2] |
| --- | --- | --- |
| C=CC(=O)N1CC[C@@H](N(C)c2nc(OC[C@@H]3CC4(CC4)CN3CC)nc3c(F)c(-c4ccc(F)c5sc(N)c(C#N)c45)c(Cl)cc23)[C@H]1C [Compound 97] | < 500 | A (percent of modification ≥70%) |
| C=CC(=O)N1CC[C@@H](N(C)c2nc(OCC3(CN4CCOCC4)CC3)nc3c(F)c(-c4ccc(F)c5sc(N)c(C#N)c45)c(C(F)(F)F)cc23)[C@H]1C [Compound 87] | < 500 | C (10%≤percent of modification <50%) |
| C=CC(=O)N1CC[C@@H](N(CC)c2nc(OC[C@@]34CCCN3C[C@H](F)C4)nc3c(F)c(-c4ccc(F)c5sc(N)c(C#N)c45)c(Cl)cc23)[C@@H]1C [Compound 77] | < 500 | A (percent of modification ≥70%) |
| C=CC(=O)N1CC[C@@H](N(C)c2nc(OC[C@@H]3C[C@@H](OC)CN3CC)nc3c(F)c(-c4ccc(F)c5sc(N)c(C#N)c45)c(Cl)cc23)[C@H]1C [Compound 99] | < 500 | A (percent of modification ≥70%) |
| C=CC(=O)N1C[C@H]2C[C@@H]1CN2c1nc(OC[C@@]23CCCN2C[C@H](F)C3)nc2c(F)c(-c3ccc(F)c4sc(N)c(C#N)c34)c(C(F)(F)F)cc12 [Compound 37] | 500 to 5000 | D (percent of modification <10%) |
| C=CC(=O)N1CC[C@@H](N(CC)c2nc(OC[C@@H]3CCCN3C)nc3c(F)c(-c4ccc(F)c5sc(N)c(C#N)c45)c(C(F)(F)F)cc23)[C@H]1C [Compound 66] | < 500 | A (percent of modification ≥70%) |
| C=CC(=O)N1CC[C@@H](N(C)c2nc(OC[C@@H]3C[C@@H](F)CN3CC)nc3c(F)c(-c4ccc(F)c5sc(N)c(C#N)c45)c(Cl)cc23)[C@H]1C [Compound 98] | 500 to 5000 | D (percent of modification <10%) |
| C=CC(=O)N1CC2CC(C1)N2c1nc(OC[C@@]23CCCN2C[C@H](F)C3)nc2c(F)c(-c3ccc(F)c4sc(N)c(C#N)c34)c(C(F)(F)F)cc12 [Compound 46] | 500 to 5000 | D (percent of modification <10%) |
| C=CC(=O)N1CC[C@@H](N(CC)c2nc(OC[C@@H]3CC4(CC4)CN3C)nc3c(F)c(-c4ccc(F)c5sc(N)c(C#N)c45)c(C(F)(F)F)cc23)[C@H]1C [Compound 65] | < 500 | A (percent of modification ≥70%) |
| C=CC(=O)N1CC[C@@H](N(CC)c2nc(OC[C@@H]3CCCN3C)nc3c(F)c(-c4ccc(F)c5sc(N)c(C#N)c45)c(Cl)cc23)[C@H]1C [Compound 58] | < 500 | A (percent of modification ≥70%) |
| C=CC(=O)N1CC[C@@H](N(C)c2nc(OC[C@@]34CCCN3C[C@H](F)C4)nc3c(F)c(-c4nc(N)cc(C)c4C(F)(F)F)c(Cl)cc23)[C@H]1C [Compound 78, 1-[(2R,3R)-3-[[7-[6-amino-4-methyl-3-(trifluoromethyl)-2-pyridyl]-6-chloro-8-fluoro-2-[[(2R,8S)-2-fluoro-1,2,3,5,6,7-hexahydropyrrolizin-8-yl]methoxy]quinazolin-4-yl]-methyl-amino]-2-methyl-pyrrolidin-1-yl]prop-2-en-1-one] | < 500 | A (percent of modification ≥70%) |

Now from value to compound:

| IC50 [1] [nM] | GTP-KRAS G12C percent of modification [2] | Compound |
| --- | --- | --- |
| < 500 | B (50≤percent of modification <70%) | C=CC(=O)N1CC[C@@H](N(C)c2nc(OC[C@@H]3CCCN3CC)nc3c(F)c(-c4ccc(F)c5sc(N)c(C#N)c45)c(Cl)cc23)[C@@H]1C [Compound 84] |
| < 500 | A (percent of modification ≥70%) | C=CC(=O)N1CC[C@@H](N(CC)c2nc(OC[C@@H]3C[C@@H](F)CN3C)nc3c(F)c(-c4ccc(F)c5sc(N)c(C#N)c45)c(C(F)(F)F)cc23)[C@H]1C [Compound 52] |
| < 500 | B (50≤percent of modification <70%) | C=CC(=O)N1CCC(N(C)c2nc(OC[C@@]34CCCN3C[C@H](F)C4)nc3c(F)c(-c4ccc(F)c5sc(N)c(C#N)c45)c(C(F)(F)F)cc23)[C@H]1CC (some centres unmarked) [Compound 3] |
| < 500 | C (10%≤percent of modification <50%) | C=CC(=O)N1CC[C@@H](N(C)c2nc(OC[C@@]34CCCN3C[C@H](F)C4)nc3c(F)c(-c4ccc(F)c5oc(N)c(C#N)c45)c(C(F)(F)F)cc23)[C@H]1C [Compound 90] |
| 500 to 5000 | D (percent of modification <10%) | C=CC(=O)N1CC[C@@H](N(CC)c2nc(OC[C@@]34CCCN3C[C@H](F)C4)nc3cc(-c4ccc(F)c5sc(N)c(C#N)c45)c(C#N)cc23)[C@@H]1CC [Compound 40] |
